Data: patent US11806317B2, “Composition capable of promoting testosterone secretion and use thereof” (TCI CO., LTD, priority 2017, dated 2023)

Test system: mouse Leydig cells (TM3 cells, ATCC CRL1714)
Assay: Test of effects of plant extracts or combinations of components on testosterone secretion (testosterone ELISA of culture supernatant)
Type: cell-based
Conditions: 24 hours, control 100%
Experimental: 500 μl of the cell culture medium was added to each well of a 24-well plate to have 2×10^4 TM3 cells per well, and cultured at 37° C. for 24 hours. After the cells were adhered, the original medium was removed, and 500 μl of the aforementioned fresh cell culture medium was added.
The samples were then divided into two groups, of which group A was the control group, and no plant extracts or other test components were added. Group B was the test group. […] After that, the condition of the amount of testosterone secretion was analyzed. The doses shown in the tables are the doses of the single extract, or the combination of the extracts.
First, 50 μl of the supernatant of the culture medium after the reaction of each of the above groups was taken out, and the testosterone ELISA test kit (USCN, Cat# CEA458Ge) was used to detect the testosterone concentration. The detected values were then analyzed by Microsoft Excel software using Student's t-test to determine whether there is statistical significance between the two samples (* indicates p-value <0.05; ** indicates p-value <0.01; *** indicates p-value <0.001).

[1] = dose 0.125 mg/ml (single extract/component or 1:1 combination)
[2] = dose 0.25 mg/ml (single extract/component or 1:1 combination)

SMILES	Testosterone secretion relative to control [1] [%]	Testosterone secretion relative to control [2] [%]	Testosterone secretion relative to control (dose 0.03125 mg/ml (single extract/component or 1:1 combination)) [%]
CC(C)=CCC/C(C)=C/C=C/C(C)=C/C=C/C(C)=C/C=C/C=C(C)/C=C/C=C(C)/C=C/C=C(\C)CCC=C(C)C [lycopene]	99.94	104.02	–
CC1=C(/C=C/C(C)=C/C=C/C(C)=C/C=C/C=C(C)/C=C/C=C(C)/C=C/C2=C(C)CCCC2(C)C)C(C)(C)CCC1 [beta carotene]	103.79	111.42	66.21
